Reference: publication PMC8943889, “Synthetic studies with the brevicidine and laterocidine lipopeptide antibiotics including analogues with enhanced properties and in vivo efficacy” (Chemical Science, 2022)
≈ marks a conversion by molar mass, not a printed value. Where two headings read alike, the source gives them in different places. Positions of bridges follow the written chain, without caps; N, C: chain ends. Non-standard residues stand in square brackets, D forms with d. Residues, ends and D or L forms follow the SMILES beside them. *: point of attachment. Octanoyl(7-Me) = CC(C)CCCCCC(=O)*; dOrn = NCCC[C@@H](N)C(=O)O; Orn = NCCC[C@H](N)C(=O)O

Key:
Assay type in all cases: cell-based
A. baumannii 2018-006 = system: A. baumannii 2018-006
Experimental: (§1) Minimum inhibitory concentrations (MICs) were determined by broth microdilution according to CLSI guidelines in triplicate. Blood agar plates were inoculated with glycerol stocks of E. coli ATCC 25922, E. coli MCR-1 (clinical isolate from Utrecht Medical Centre, NL), E. coli EQAS MCR-2 (clinical isolate from Wageningen University and Research, NL), K. pneumoniae ATCC 11228, K. pneumoniae ATCC 13883, K. pneumonia 2048 (clnical isolate from Vrije Universiteit Amsterdam Medical Centre, NL), K. pneumonia JS-123 (clinical isolate from Utrecht Medical […]
(§2) (clinical isolate from Rijksinstituut voor Volksgezondheid en Milieu, NL), A. baumannii MDR (clinical isolate from Vrije Universiteit Amsterdam Medical Centre, NL), P. aeruginosa ATCC 27853, P. aeruginosa PAO1, P. aeruginosa NRZ-03961 (Reference strain from Das Nationale Referenzzentrum für gramnegative Krankenhauserreger, DE), P. aeruginosa M-120 (clinical isolate from Leiden University Medical Centre, NL) and S. aureus USA300 (clinical isolate from Texas Children's Hospital, USA). E. coli 25922 MCR1 was grown on LB agar supplemented with kanamycin. The inoculated agar plates were then incubated for 16 h at 37°C . Individually grown colonies were subsequently used to inoculate 3 mL aliquots of TSB that were then incubated at 37°C with shaking at 220 rpm. In parallel, the lipopeptide antibiotics to be assessed were serially diluted with Mueller-Hinton broth (MHB) in polypropylene 96-well plates (50 µL in each well).
(§3) Once the OD600 of the bacterial suspensions reached 0.5, the bacteria were diluted with MHB (final concentration 2 × 10^5 CFU mL−1) and added to the microplates containing the test compounds (50 µL to each well, final volume: 100 µL). The well-plates were sealed with an adhesive membrane and after 16 h of incubation at 37°C with shaking at 220 rpm the wells were visually inspected for bacterial growth. MIC values reported are based on three technical replicates and defined as the lowest concentration of the compound that prevented visible growth of bacteria. […]

A. baumannii ATCC 17961 = system: A. baumannii ATCC 17961
Experimental: as §1, §2, §3

A. baumannii ATCC 17978 = system: A. baumannii ATCC 17978
Experimental: as §1, §2, §3

A. baumannii MDR = conditions: Ab MDR; broth microdilution (CLSI), MHB, 16 h 37 °C, three technical replicates
Experimental: as §1, §2, §3

E. coli ATCC 25922 MCR-1 = conditions: Ec ATCC 25922 MCR-1; broth microdilution (CLSI), MHB, 16 h 37 °C, three technical replicates
Experimental: as §1, §2, §3

E. coli ATCC 25922 = system: E. coli ATCC 25922
Experimental: as §1, §2, §3

E. coli EQAS MCR-2 = conditions: Ec EQAS MCR-2; broth microdilution (CLSI), MHB, 16 h 37 °C, three technical replicates
Experimental: as §1, §2, §3

K. pneumoniae 2048 = system: K. pneumoniae 2048
Experimental: as §1, §2, §3

K. pneumoniae ATCC 11228 = system: K. pneumoniae ATCC 11228
Experimental: as §1, §2, §3

K. pneumoniae ATCC 13883 = system: K. pneumoniae ATCC 13883
Experimental: as §1, §2, §3

K. pneumoniae JS-123 = system: K. pneumoniae JS-123
Experimental: as §1, §2, §3

P. aeruginosa ATCC 27853 = system: P. aeruginosa ATCC 27853
Experimental: as §1, §2, §3

P. aeruginosa M-120 = system: P. aeruginosa M-120
Experimental: as §1, §2, §3

P. aeruginosa NRZ-03961 = system: P. aeruginosa NRZ-03961
Experimental: as §1, §2, §3

P. aeruginosa PAO1 = system: P. aeruginosa PAO1
Experimental: as §1, §2, §3

S. aureus USA300 = system: S. aureus USA300
Experimental: as §1, §2, §3

[1] = system: E. coli MCR-1 (clinical isolate); conditions: Ec MCR-1; broth microdilution (CLSI), MHB, 16 h 37 °C, three technical replicates
Experimental: as §1, §2, §3

Molecule | MIC (A. baumannii 2018-006; 2018-006, 16 h) [µg/mL] | MIC (A. baumannii ATCC 17961; ATCC 17961, 16 h) [µg/mL] | MIC (A. baumannii ATCC 17978; ATCC 17978, 16 h) [µg/mL] | MIC (A. baumannii MDR) [µg/mL] | MIC (E. coli ATCC 25922 MCR-1) [µg/mL] | MIC (E. coli ATCC 25922; ATCC 25922, 16 h) [µg/mL] | MIC (E. coli EQAS MCR-2) [µg/mL] | MIC (K. pneumoniae 2048; 2048, 16 h) [µg/mL] | MIC (K. pneumoniae ATCC 11228; ATCC 11228, 16 h) [µg/mL] | MIC (K. pneumoniae ATCC 13883; ATCC 13883, 16 h) [µg/mL] | MIC (K. pneumoniae JS-123; JS-123, 16 h) [µg/mL] | MIC (P. aeruginosa ATCC 27853; ATCC 27853, 16 h) [µg/mL] | MIC (P. aeruginosa M-120; M-120, 16 h) [µg/mL] | MIC (P. aeruginosa NRZ-03961; NRZ-03961, 16 h) [µg/mL] | MIC (P. aeruginosa PAO1; PAO1, 16 h) [µg/mL] | MIC (S. aureus USA300; USA300, 16 h) [µg/mL] | MIC [1] [µg/mL] | also measured
CCC(C)CCC(=O)N[C@H](CC(N)=O)C(=O)N[C@H](Cc1ccc(O)cc1)C(=O)N[C@H](Cc1c[nH]c2ccccc12)C(=O)N[C@H](CCCN)C(=O)N[C@@H](CCCN)C(=O)NCC(=O)N[C@H](CCCN)C(=O)N[C@@H](Cc1c[nH]c2ccccc12)C(=O)N[C@@H]1C(=O)N[C@@H]([C@@H](C)CC)C(=O)NCC(=O)N[C@@H](CO)C(=O)O[C@@H]1C (stereo partly drawn) [Brev (1), brevicidine] | 4 (≈ 2.63 µM) | 2 to 4 | 4 (≈ 2.63 µM) | 4 (≈ 2.63 µM) | 2 (≈ 1.32 µM) | 1 to 2 | 2 (≈ 1.32 µM) | 1 to 2 | 1 to 2 | 1 (≈ 0.658 µM) | 1 (≈ 0.658 µM) | ≤0.5 | 2 to 4 | 2 (≈ 1.32 µM) | 2 (≈ 1.32 µM) | 64 (≈ 42.1 µM) |  | 
CCC(C)CCC(=O)N[C@H](CC(N)=O)C(=O)N[C@H](Cc1ccc(O)cc1)C(=O)N[C@H](Cc1c[nH]c2ccccc12)C(=O)N[C@H](CCCN)C(=O)N[C@@H](CCCN)C(=O)NCC(=O)N[C@H](CCCN)C(=O)N[C@@H](Cc1c[nH]c2ccccc12)C(=O)N[C@@H]1C(=O)N[C@@H]([C@@H](C)CC)C(=O)NCC(=O)N[C@@H](CO)C(=O)N[C@@H]1C (stereo partly drawn) [MeDap9-Brev (7)] | 16 (≈ 10.5 µM) | 8 to 16 | 16 (≈ 10.5 µM) |  | 8 (≈ 5.27 µM) | 16 (≈ 10.5 µM) |  | 8 to 16 | 8 (≈ 5.27 µM) | 8 (≈ 5.27 µM) | 4 to 8 | 2 to 4 | 4 (≈ 2.63 µM) | 8 (≈ 5.27 µM) | 4 (≈ 2.63 µM) | >64 | 8 (≈ 5.27 µM) | 
CC[C@H](C)[C@@H]1NC(=O)[C@@H](NC(=O)[C@H](Cc2c[nH]c3ccccc23)NC(=O)[C@@H](CCCN)NC(=O)CNC(=O)[C@H](CCCN)NC(=O)[C@@H](CCCN)NC(=O)[C@@H](Cc2c[nH]c3ccccc23)NC(=O)[C@@H](Cc2ccc(O)cc2)NC(=O)[C@@H](CO)NC(=O)CCCCCC(C)C)COC(=O)CNC(=O)CNC(=O)[C@H](CC(N)=O)NC1=O [Ser9-Lat (4), Ser9-Laterocidine] ({Octanoyl(7-Me)}-[dS][dY][dW][dOrn][Orn]G[dOrn]WSINGG; ester 9-C) | 4 (≈ 2.51 µM) | 4 (≈ 2.51 µM) | 2 (≈ 1.26 µM) |  |  | 0.5 (≈ 0.314 µM) |  | 2 (≈ 1.26 µM) | 1 to 2 | 1 to 2 | 0.5 (≈ 0.314 µM) | 0.5 to 1 | 1 (≈ 0.629 µM) | 1 to 2 | 2 (≈ 1.26 µM) | >64 |  | 
colistin [reference compound] |  |  |  | <0.25 |  |  | 4 |  |  |  |  |  |  |  |  |  | 2 to 4 | MIC (A. baumannii 2018-006; Ab 2018-006, broth microdilution (CLSI), MHB, 16 h 37 °C, three technical replicates): <0.25 µg/mL; MIC (A. baumannii ATCC 17961; Ab ATCC 17961, broth microdilution (CLSI), MHB, 16 h 37 °C, three technical replicates): <0.25 µg/mL; MIC (A. baumannii ATCC 17978; Ab ATCC 17978, broth microdilution (CLSI), MHB, 16 h 37 °C, three technical replicates): <0.25 µg/mL; MIC (E. coli ATCC 25922; Ec ATCC 25922, broth microdilution (CLSI), MHB, 2 × 10^5 CFU/mL, 16 h 37 °C, visual read-out, three technical replicates): 0.25 to 0.5 µg/mL; MIC (K. pneumoniae 2048; Kp 2048, broth microdilution (CLSI), MHB, 16 h 37 °C, three technical replicates): 0.5 to 1 µg/mL; MIC (K. pneumoniae ATCC 11228; Kp ATCC 11228, broth microdilution (CLSI), MHB, 16 h 37 °C, three technical replicates): <0.25 µg/mL; MIC (K. pneumoniae ATCC 13883; Kp ATCC 13883, broth microdilution (CLSI), MHB, 16 h 37 °C, three technical replicates): 0.25 µg/mL; MIC (K. pneumoniae JS-123; Kp JS-123, broth microdilution (CLSI), MHB, 16 h 37 °C, three technical replicates): <0.25 µg/mL; MIC (P. aeruginosa ATCC 27853; Pa ATCC 27853, broth microdilution (CLSI), MHB, 16 h 37 °C, three technical replicates): <0.25 µg/mL; MIC (P. aeruginosa M-120; Pa M-120, broth microdilution (CLSI), MHB, 16 h 37 °C, three technical replicates): <0.25 µg/mL; MIC (P. aeruginosa NRZ-03961; Pa NRZ-03961, broth microdilution (CLSI), MHB, 16 h 37 °C, three technical replicates): 0.25 to 0.5 µg/mL; MIC (P. aeruginosa PAO1; Pa PAO1, broth microdilution (CLSI), MHB, 16 h 37 °C, three technical replicates): 0.25 to 0.5 µg/mL; MIC (S. aureus USA300; Sa USA300, broth microdilution (CLSI), MHB, 16 h 37 °C, three technical replicates): >64 µg/mL
